From patent publication EP3783012A1, “AN ANTIMICROBIAL PEPTIDE” (priority 2019, dated 2021)
Where no end group is shown, it is not given here.

Experiments:
[1] = tested on: human THP-1 macrophages; assay: Ex-vivo viability assay (MTT); type: cell-based
Description: Ex-vivo viability assay: Cellular viability was assessed in human THP-1 macrophages by a colorimetric assay that makes use of thiazolyl blue tetrazolium bromide (MTT, Sigma). Cells were grown in Roswell Park Memorial Institute (RPMI) medium supplemented with 10% of heat inactivated fetal bovine serum (FBS), 1% L-glutamine and 1% penicillin-streptomycin. At 90% confluence, cells were centrifuged and diluted to a 1:5 ratio with complete RPMI. The monocytes were differentiated into macrophages using […] phorbol 12-myristate 13-acetate (PMA) before being seeded in a 96 well plate at a density of 1.0 x 10^4 cells/well and incubated in the presence of 5% CO2 for 72 hours at 37°C. Following this, cells were treated with increasing concentrations (0.05, 0.5, 5, 50, 500 µg/mL) of Pep_V2QV5D, magainin 2 or colistin before re-incubation for a further 24 hours. Post-incubation, 10 µL of MTT was added to each well at a final concentration of 500 µg/mL and incubated at 5% CO2 for 2 hours at 37°C. Formazan crystals were dissolved by the addition of 100 µL 100% DMSO and gentle shaking for 5 minutes at room temperature. The absorbance was measured at 570nm in a microplate spectrophotometer (Synergy H1, Biotek). Maximum toxicity was determined by cells incubated with 100% DMSO. Cell viability was calculated as a per cent of a control treated with PBNS. Three technical replicates were performed each day on three independent days.

[2] = tested on: colRAB; assay: Complete Elimination (CE) Drop Plate method; type: cell-based, A. baumannii; conditions: 90 minutes challenge in PBNS, tested alone
Description: (§1) Complete Elimination (CE) Drop Plate method: The CE method was primarily used as the antimicrobial susceptibility testing method for peptides used in this study. This was performed to avoid any interference of cations within the test media or buffer on the bioactivity of the peptides. This assay was performed by the method outlined by Chen et al. (2003) with minor modifications. Briefly, bacteria were grown overnight and sub-cultured to mid exponential phase. PBNS was used to make serial dilutions of bacteria in a 96 well plate. The appropriate volume of peptide was added to the wells at a final volume of 100 µL. As a control, PBNS was added to the bacterial suspensions without any peptide. The microtiter plate was incubated for 90 minutes at 37°C. Post challenge, 10 µL from each well was spotted onto appropriate media, depending on the strain. This was conducted in triplicate. The spots were left to dry, and the plates were incubated inverted. The first concentration to inhibit growth across all bacterial dilutions was determined as the CE concentration. Surviving colonies at sub-CE concentrations were counted after 18 hours incubation at 37°C. The reduction in colony forming units (CFU) was assessed relative to the untreated control and the log reduction induced by peptide treatment was calculated. All antimicrobial activity assays were performed in triplicate and on independent days.

[3] = tested on: colSAB; assay: Complete Elimination (CE) Drop Plate method; type: cell-based, A. baumannii; conditions: 90 minutes challenge in PBNS
Description: as §1

[4] = tested on: colRAB; assay: Synergy study, Fractional inhibitory concentration (FIC) by CE drop plate method; type: cell-based, A. baumannii; conditions: Pep_V2QV5D combined with colistin
Description: Synergy studies were conducted using the above described CE drop plate method, however two peptides were mixed in a series of concentration combinations using PBNS as a diluent before bacterial inoculation and subsequent incubation. The highest concentration combination tested was the individual CE concentrations of Pep_V2QV5D and colistin, which were 12 µg/mL and 8 µg/mL, respectively. The amounts of each compound were then reduced sequentially in various proportions until the lowest possible active combination was identified.
Traditionally, the FIC in a drug mixture is defined as the sum of the FICs (ΣFIC) and is calculated with the equation; ΣFIC = FICA + FICB = (CEcombA/CEA) + (CEcombB/CEB) [formula]
Where CEA and CEB are the killing concentrations of individual peptides A and B, respectively, and CEcombA and CEcombB are the killing concentrations of the peptides in combination. In this work we used a similar concept and analysed the ratios of FICA and FICB. 'Synergy' was interpreted as a FIC ≤ 0.5, 'antagonism' as FIC > 4.0 and 'no interaction' as FIC > 0.5-4.0 [40].

[5] = tested on: A. baumannii; assay: In vitro resistance study (14 sequential passages at sub-inhibitory concentrations); type: cell-based; conditions: repeated exposure to sub-inhibitory concentrations
Description: In vitro resistance study: This assay was conducted as outlined by Ge et al. 1999 with some modifications. Briefly, the in vitro passage study involved exposing bacteria diluted to […] in PBNS to Pep_V2QV5D at one-half of the previously established bactericidal concentration. After 90 minutes of incubation at 37°C, 10 µL was spotted in triplicate on MHB and incubated again overnight. Post-incubation, surviving colonies were collected, diluted in PBNS and adjusted to […] before repeated treatment with the sub-killing concentration of Pep_V2QV5D. The CE concentration was determined prior to the initiation of the study, after the 4th, 7th, 11th and 14th passages. If the CE concentration after the fourth passage was greater than the original killing concentration, then for passes 5, 6, and 7, the amount of peptide used during the bacterial challenge was increased to one-half of that new CE concentration. This was continued over a 14-day course. Magainin and colistin were used as controls for the in vitro resistance study. This assay was performed in independent duplicates.

[6] = in humans; cited from earlier work

Question: For GIGKFLHSAKKFGKAFVGEIMNS [magainin 2], which decrease in viability ([1]; 50 µg/mL, 24 hours, MTT) is on record?
Answer: 22%

Question: For VRGLAPKKSLWPFGGPFKSPFN [Pep_V2QV5D], which “toxic concentration compared to the concentration required for antimicrobial action (therapeutic index)” value [1] is on record?
Answer: over 40 times

Question: Which “Complete Elimination values (CE concentration)” value (“Complete Elimination values” below) [2] does the source give for colistin here?
Answer: 8 µg/mL

Question: What about the “Complete Elimination values” value ([2]; listed as Colistin) of the same substance?
Answer: 8 ^(R) µg/mL

Question: And the “Complete Elimination values” value [3]?
Answer: 0.25 µg/mL

Question: What about the “CE concentration in combination” value [4] of the same substance?
Answer: 1 µg/mL

Question: And the “toxic concentration compared to the concentration required for antimicrobial action (therapeutic index)” value [1]?
Answer: 6.8 times

Question: And the “fold change in the CE concentration over 14 days” value [5]?
Answer: 16 fold

Question: For vasopressin, which half-life [6] is on record?
Answer: 10 to 35 min
